Results from patent US10689423B2, “CTLA4-binding protein peptide-linker masks” (City of Hope, priority 2015, dated 2020).
Bridge positions count the residues as written; N and C are the ends. Peptide text beside a SMILES is read from it.

Columns and labels:
Lcn2-Fc = experiment: Phage competition ELISA of surface-bound peptides on immobilized Lcn2-Fc; format: binding; conditions: compared to Lcn2-Fc pre-complexed with CTLA4-Fc or PBS control
Excerpt: FIGS. 2A and 2B: Identification and characterization of a peptide (CTLA-4 binding domain masking peptide) blocking binding of mLcn2 (CTLA-4 binding domain) to CTLA-4. […] FIG. 2B is a graph showing surface plasmon resonance traces of analyte mLcn2-Fc flowed over ligand Peptide 16 immobilized to a CM5 chip.
FIG. 10B: ELISA results of bacteriophage library after three rounds of enrichment. Wells in a 96-well plate were immobilized with mLcn2-Fc (left column), mLcn2-Fc pre-complexed with CTLA-4-Fc (middle column), or PBS (right column). Each condition was performed in triplicate.
FIGS. 12A-12D: 18 min substrate incubation. […] FIG. 12A is a graph showing Clone 1—YGLGFNF (SEQ ID NO:52); FIG. 12B is a graph showing Clone 2—RIDETLQ (SEQ ID NO:53); FIG. 12C is a graph showing Clone 3—FTPWPEA (SEQ ID NO:54); and FIG. 12D is a graph showing Clone 4—WPEWDLW (SEQ ID NO:55).
FIGS. 13A-13D: 18 min substrate incubation. […] FIG. 13A is a graph showing clone 6—EKWFRFM (SEQ ID NO:56); FIG. 13B is a graph showing clone 8—YLELMHS (SEQ ID NO:57); FIG. 13C is a graph showing clone 12—SVLPPFM (SEQ ID NO:58); FIG. 13D is a graph showing clone 16—WSPLPFM (SEQ ID NO:59).
(§1) The sequence of mLcn2 was obtained from the PDB, synthesized and produced in bacteria. Peptides that specifically bind to mLcn2 were identified using a cyclic 7-mer library. Positive leads were identified and sequencing of these hits indicated an overall pattern in the sequences. To further characterize the lead peptides and to ensure the peptides bound to the same site as CTLA, a competition ELISA was performed using all leads (FIG. 2A). Based on this analysis, two cyclic peptides were chosen, chemically synthesized, and characterized by SPR (FIG. 2B) and crystallography. Well diffracting crystals were obtained for both complexes (1.95 and 2.15 Å) and refined (R/Rfree of 18.0/22.5% and 16.5/18.5% and no Ramachandran outliers). […] Design of the linker was aided by examination of the crystal structure of lipocalin.

mLcn2-Fc = experiment: SPR of analyte mLcn2-Fc flowed over immobilized Peptide12; format: binding; conditions: peptide immobilized on CM5 chip, three independent experiments
Excerpt: FIG. 14B: mLCN2-Fc vs. Pep12. Surface plasmon resonance of analyte mLcn2-Fc flowed over ligand Peptide12 immobilized to a CM5 chip. Representative results are shown from three independent experiments.
as §1

mLcn2 = biological target: T1, mLcn2 (Homo sapiens, UniProt P80188, A60R/C107S/D67H/D97E/E64D/F91S/G122D/H138Y/K145L/K154A/K66Q/K70N/K93H/L123K/L157I/L90I/M140V/N134D/P121G/Q148D/Q48H/Q69M/R101A/R150A/R92S/S147E/T165A/V146A/W99T/Y152F); experiment: SPR of analyte mLcn2 flowed over immobilized Peptide16; format: binding
T1 construct: made in house; host or cells: bacteria
Excerpt: FIG. 14A: mLCN2 vs. Pep16. Surface plasmon resonance of analyte mLcn2 flowed over ligand Peptide16 immobilized to a CM5 chip. Representative results are shown from three independent experiments.
as §1

[1] = most common major toxicity; cited from earlier work

Compound: CSVLPPFMC [Peptide 12]
- phage binding to immobilized Lcn2-Fc by ELISA (Lcn2-Fc): increased binding to immobilized Lcn2-Fc
- Kd (mLcn2-Fc): 3.4 µM

Compound: CYGLGFNFC [Peptide 1]
- phage binding to immobilized Lcn2-Fc by ELISA (Lcn2-Fc): increased binding to immobilized Lcn2-Fc

Compound: CSCC[C@@H]1NC(=O)[C@H](Cc2ccccc2)NC(=O)[C@@H]2CCCN2C(=O)[C@H](CC(C)C)NC(=O)[C@@H]2CCCN2C(=O)[C@H](CO)NC(=O)[C@H](Cc2c[nH]c3ccccc23)NC(=O)[C@@H](N)CSSC[C@@H](C(=O)O)NC1=O [Peptide 16, CWSPLPFMC] (H-CWSPLPFMC-OH; disulfide 1-9)
- Kd (mLcn2): 4.6 µM

Compound: CWPEWDLWC [Peptide 4]
- phage binding to immobilized Lcn2-Fc by ELISA (Lcn2-Fc): increased binding to immobilized Lcn2-Fc

Compound: CRIDERLQC [Peptide 2]
- phage binding to immobilized Lcn2-Fc by ELISA (Lcn2-Fc): increased binding to immobilized Lcn2-Fc

Compound: CYLELMHSC [Peptide 8]
- phage binding to immobilized Lcn2-Fc by ELISA (Lcn2-Fc): increased binding to immobilized Lcn2-Fc

Compound: CFTPWPEAC [Peptide 3]
- phage binding to immobilized Lcn2-Fc by ELISA (Lcn2-Fc): increased binding to immobilized Lcn2-Fc

Compound: ipilimumab
- patients affected by enterocolitis [1]: approximately 20%

Compound: CEKWFRFMC [Peptide 6]
- phage binding to immobilized Lcn2-Fc by ELISA (Lcn2-Fc): increased binding to immobilized Lcn2-Fc
